Experimental data: patent publication US11053204B2, “Pyrimidinyloxy benzene derivatives as herbicides” (FMC Corporation, priority 2015, dated 2021)

Columns and labels:
Format in all cases: in vivo
[1] = system: barnyardgrass (Echinochloa crus-galli); experiment: Test B flooded paddy test, plant response rating; conditions: 250 g ai/ha; Flood; scale of 0 to 100 where 0 is no effect and 100 is complete control; 13 to 15 days
How it was run: (§1)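 Test compounds are applied straight into paddy water held 3 cm above the soil surface, with that flood maintained for the whole test. After 13 to 15 days in the greenhouse, each species is scored visually relative to controls.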

[2] = system: ducksalad (Heteranthera limosa); experiment: Test B flooded paddy test, plant response rating; conditions: 250 g ai/ha; Flood; scale of 0 to 100 where 0 is no effect and 100 is complete control; 13 to 15 days
How it was run: as §1

rice (Oryza sativa) = experiment: Test B flooded paddy test, plant response rating; conditions: 250 g ai/ha; Flood; scale of 0 to 100 where 0 is no effect and 100 is complete control; 13 to 15 days
How it was run: as §1

[3] = system: sedge, umbrella (small-flower umbrella sedge, Cyperus difformis); experiment: Test B flooded paddy test, plant response rating; conditions: 250 g ai/ha; Flood; scale of 0 to 100 where 0 is no effect and 100 is complete control; 13 to 15 days
How it was run: as §1

[4] = system: blackgrass (Alopecurus myosuroides); experiment: Test C preemergence, plant response rating; conditions: Preemergence
How it was run: (§2)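 Visual injury score, 0 = no effect, 100 = complete control, assigned against untreated controls after 13 to 15 d in the greenhouse. Compounds were applied in a surfactant-containing non-phytotoxic solvent mix, preemergence to seeded loam/sand or silt loam soil, or postemergence to 1- to 4-leaf plants (2 to 18 cm).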

corn (Zea mays) = experiment: Test C preemergence, plant response rating; conditions: Preemergence
How it was run: as §2

[5] = system: crabgrass, large (large crabgrass, Digitaria sanguinalis); experiment: Test C preemergence, plant response rating; conditions: Preemergence
How it was run: as §2

[6] = system: foxtail, giant (giant foxtail, Setaria faberii); experiment: Test C preemergence, plant response rating; conditions: Preemergence
How it was run: as §2

[7] = system: lambsquarters (Chenopodium album); experiment: Test C preemergence, plant response rating; conditions: Preemergence
How it was run: as §2

[8] = system: morningglory (Ipomoea coccinea); experiment: Test C preemergence, plant response rating; conditions: Preemergence
How it was run: as §2

[9] = system: nutsedge, yellow (yellow nutsedge, Cyperus esculentus); experiment: Test C preemergence, plant response rating; conditions: Preemergence
How it was run: as §2

[10] = system: oilseed rape (Brassica napus); experiment: Test C preemergence, plant response rating; conditions: Preemergence
How it was run: as §2

[11] = system: ragweed (common ragweed, Ambrosia elatior); experiment: Test C preemergence, plant response rating; conditions: Preemergence
How it was run: as §2

[12] = system: ryegrass, Italian (Italian ryegrass, Lolium multiflorum); experiment: Test C preemergence, plant response rating; conditions: Preemergence
How it was run: as §2

soybean (Glycine max) = experiment: Test C preemergence, plant response rating; conditions: Preemergence
How it was run: as §2

[13] = system: velvetleaf (Abutilon theophrasti); experiment: Test C preemergence, plant response rating; conditions: Preemergence
How it was run: as §2

[14] = system: waterhemp (common waterhemp, Amaranthus rudis); experiment: Test C preemergence, plant response rating; conditions: Preemergence
How it was run: as §2

[15] = system: wheat (winter wheat, Triticum aestivum); experiment: Test C preemergence, plant response rating; conditions: Preemergence
How it was run: as §2

[16] = system: chickweed (common chickweed, Stellaria media); experiment: Test C postemergence, plant response rating; conditions: for Chickweed plant response rating: scale 0 to 100 (0 no effect, 100 complete control)
How it was run: as §2

[17] = system: foxtail, giant (giant foxtail, Setaria faberii); experiment: Test C postemergence, plant response rating; conditions: for Foxtail, Giant plant response rating: scale 0 to 100 (0 no effect, 100 complete control)
How it was run: as §2

[18] = system: morningglory (Ipomoea coccinea); experiment: Test C postemergence, plant response rating; conditions: for Morningglory plant response rating: scale 0 to 100 (0 no effect, 100 complete control)
How it was run: as §2

SMILES: O=C(CCC(F)(F)F)c1c(Br)cccc1Oc1ncc(Cl)cn1 [Compound 92]
- Plant response rating, Barnyardgrass [1]: 25
- Plant response rating, Ducksalad [2]: 100
- Plant response rating, Rice (rice (Oryza sativa)): 0
- Plant response rating, Sedge, Umbrella [3]: 100
- Plant response rating, Blackgrass ([4]; 125 g ai/ha, scale of 0 to 100): 100
- Plant response rating, Blackgrass ([4]; 16 g ai/ha, scale 0 to 100): 45
- Plant response rating, Blackgrass ([4]; 31 g ai/ha, scale 0 to 100): 80
- Plant response rating, Blackgrass ([4]; 62 g ai/ha, scale 0 to 100): 100
- Plant response rating, Corn (corn (Zea mays); 125 g ai/ha, scale of 0 to 100): 40
- Plant response rating, Corn (corn (Zea mays); 16 g ai/ha, scale 0 to 100): 0
- Plant response rating, Corn (corn (Zea mays); 31 g ai/ha, scale 0 to 100): 15
- Plant response rating, Corn (corn (Zea mays); 62 g ai/ha, scale 0 to 100): 35
- Plant response rating, Crabgrass, Large ([5]; 125 g ai/ha, scale of 0 to 100): 100
- Plant response rating, Crabgrass, Large ([5]; 16 g ai/ha, scale 0 to 100): 100
- Plant response rating, Crabgrass, Large ([5]; 31 g ai/ha, scale 0 to 100): 100
- Plant response rating, Crabgrass, Large ([5]; 62 g ai/ha, scale 0 to 100): 100
- Plant response rating, Foxtail, Giant ([6]; 125 g ai/ha, scale of 0 to 100): 100
- Plant response rating, Foxtail, Giant ([6]; 31 g ai/ha, scale 0 to 100): 100
- Plant response rating, Foxtail, Giant ([6]; 62 g ai/ha, scale 0 to 100): 100
- Plant response rating, Lambsquarters ([7]; 125 g ai/ha, scale of 0 to 100): 100
- Plant response rating, Lambsquarters ([7]; 31 g ai/ha, scale 0 to 100): 100
- Plant response rating, Lambsquarters ([7]; 62 g ai/ha, scale 0 to 100): 100
- Plant response rating, Morningglory ([8]; 125 g ai/ha, scale of 0 to 100): 70
- Plant response rating, Morningglory ([8]; 31 g ai/ha, scale 0 to 100): 40
- Plant response rating, Morningglory ([8]; 62 g ai/ha, scale 0 to 100): 60
- Plant response rating, Nutsedge, Yellow ([9]; 125 g ai/ha, scale of 0 to 100): 50
- Plant response rating, Nutsedge, Yellow ([9]; 31 g ai/ha, scale 0 to 100): 5
- Plant response rating, Nutsedge, Yellow ([9]; 62 g ai/ha, scale 0 to 100): 5
- Plant response rating, Oilseed Rape ([10]; 125 g ai/ha, scale of 0 to 100): 100
- Plant response rating, Oilseed Rape ([10]; 31 g ai/ha, scale 0 to 100): 100
- Plant response rating, Oilseed Rape ([10]; 62 g ai/ha, scale 0 to 100): 100
- Plant response rating, Ragweed ([11]; 125 g ai/ha, scale of 0 to 100): 60
- Plant response rating, Ragweed ([11]; 31 g ai/ha, scale 0 to 100): 55
- Plant response rating, Ragweed ([11]; 62 g ai/ha, scale 0 to 100): 60
- Plant response rating, Ryegrass, Italian ([12]; 125 g ai/ha, scale of 0 to 100): 95
- Plant response rating, Ryegrass, Italian ([12]; 31 g ai/ha, scale 0 to 100): 5
- Plant response rating, Ryegrass, Italian ([12]; 62 g ai/ha, scale 0 to 100): 55
- Plant response rating, Soybean (soybean (Glycine max); 125 g ai/ha, scale of 0 to 100): 60
- Plant response rating, Soybean (soybean (Glycine max); 31 g ai/ha, scale 0 to 100): 40
- Plant response rating, Soybean (soybean (Glycine max); 62 g ai/ha, scale 0 to 100): 70
- Plant response rating, Velvetleaf ([13]; 125 g ai/ha, scale of 0 to 100): 100
- Plant response rating, Velvetleaf ([13]; 31 g ai/ha, scale 0 to 100): 75
- Plant response rating, Velvetleaf ([13]; 62 g ai/ha, scale 0 to 100): 100
- Plant response rating, Waterhemp ([14]; 125 g ai/ha, scale of 0 to 100): 100
- Plant response rating, Waterhemp ([14]; 31 g ai/ha, scale 0 to 100): 100
- Plant response rating, Waterhemp ([14]; 62 g ai/ha, scale 0 to 100): 100
- Plant response rating, Wheat ([15]; 125 g ai/ha, scale of 0 to 100): 20
- Plant response rating, Wheat ([15]; 31 g ai/ha, scale 0 to 100): 0
- Plant response rating, Wheat ([15]; 62 g ai/ha, scale 0 to 100): 0
- Plant response rating, Chickweed ([16]; 16 g ai/ha, scale of 0 to 100): 100
- Plant response rating, Chickweed ([16]; 31 g ai/ha, scale 0 to 100): 100
- Chickweed plant response rating ([16]; 62 g ai/ha): 100
- Chickweed plant response rating ([16]; 125 g ai/ha): 100
- Plant response rating, Foxtail, Giant ([17]; 16 g ai/ha, scale of 0 to 100): 10
- Plant response rating, Foxtail, Giant ([17]; 31 g ai/ha, scale 0 to 100): 20
- Foxtail, Giant plant response rating ([17]; 62 g ai/ha): 25
- Foxtail, Giant plant response rating ([17]; 125 g ai/ha): 50
- Plant response rating, Morningglory ([18]; 16 g ai/ha, scale of 0 to 100): 20
- Plant response rating, Morningglory ([18]; 31 g ai/ha, scale 0 to 100): 85
- Morningglory plant response rating ([18]; 62 g ai/ha): 65
- Morningglory plant response rating ([18]; 125 g ai/ha): 85
